In ChEMBL document CHEMBL5543114, “Chimeric NOD2 Mincle Agonists as Vaccine Adjuvants” (J Med Chem, 2024):
The source made the active and inactive calls. No cut-off for these calls is given here.

How the values were obtained:
BMDM [1] = experiment: Induction of IL-23 production in C57BL/6 mouse BMDM cells at 2 ug/ml incubated for 48 hrs in presence of 1 nmol [(2R,3S,4S,5R,6R)-3,4,5-trihydroxy-6-[(3R,4S,5S,6R)-3,4,5-trihydroxy-6-[(4-octadecoxybenzoyl)oxymethyl]tetrahydropyran-2-yl]oxy-tetrahydropyran-2-yl]methyl 4-octadecoxybenzoate by ELISA; type: functional, cell-based; details: dose 2.0 µg/ml
2B4 = experiment: Induction of NFAT-GFP signal in mouse 2B4 reporter cells expressing mMincle + FcRgamma at 0.1 to 1 nmol incubated for 18 hrs by flow cytometry analysis; type: functional, cell-based; details: dose 0.1-1 nmol
HEK293 [2] = experiment: Induction of IL-8 production in HEK293 cells expressing mouse NOD2 at 5 to 50 uM incubated for 20 hrs by ELISA; type: functional, cell-based; details: Homo sapiens, dose 5-50 µM
[3] = Drug hydrolysis in water at pH 7 assessed as half life by HPLC-UV analysis; type: physicochemical; details: buffer
[4] = Drug hydrolysis in water at pH 4.4 assessed as half life by HPLC-UV analysis; type: physicochemical
[5] = Drug hydrolysis in water at pH 1 assessed as half life by HPLC-UV analysis; type: physicochemical
BMDM [6] = experiment: Induction of IL-1beta production in C57BL/6 mouse BMDM at 1 nmol incubated for 48 hrs by ELISA; type: functional, cell-based
BMDM [7] = experiment: Induction of IL-6 production in C57BL/6 mouse BMDM at 1 nmol incubated for 48 hrs by ELISA; type: functional, cell-based
BMDM [8] = experiment: Induction of IL-23 production in C57BL/6 mouse BMDM at 1 nmol incubated for 48 hrs by ELISA; type: functional, cell-based
Splenocyte [9] = experiment: Improvement in memory response in ovalbumin immunized C57BL/6 mouse splenocytes assessed as increase in IFNgamma level incubated for 72 hrs by ELISA; type: functional, cell-based
Mus musculus [10] = organism: Mus musculus; experiment: Adjuvanticity in ovalbumin immunized C57BL/6 mouse assessed as increase in anti-OVA IgG titers at 40 nmol boosted with OVA at 1 week and measured after week 4, 5, 6 by ELISA; type: functional, organism-based; details: time 6.0 weeks
[11] = Toxicity in ovalbumin immunized C57BL/6 mouse assessed as body weight loss at 40 nmol boosted with OVA at 1 week and measured after week 3, 4, 5 and 6; details: in vivo, 1008 h, time 6 weeks
HEK293 [12] = experiment: Induction of IL-8 production in HEK293 cells expressing mouse NOD2 at 5 to 50 uM incubated for 20 hrs in presence of 10 to 100 uM (4R)-4-[[(2S)-2-[[(2R)-2-[(3R,4R,5S,6R)-3-acetamido-2,5-dihydroxy-6-(hydroxymethyl)tetrahydropyran-4-yl]oxypropanoyl]amino]propanoyl]amino]-5-amino-5-oxo-pentanoic acid by ELISA; type: functional, cell-based; details: Homo sapiens, dose 5-50 µM
Splenocyte [13] = experiment: Improvement in memory response in ovalbumin immunized C57BL/6 mouse splenocytes assessed as increase in IFNgamma level incubated for 72 hrs in presence of (4R)-4-[[(2S)-2-[[(2R)-2-[(3R,4R,5S,6R)-3-acetamido-2,5-dihydroxy-6-(hydroxymethyl)tetrahydropyran-4-yl]oxypropanoyl]amino]propanoyl]amino]-5-amino-5-oxo-pentanoic acid by ELISA; type: functional, cell-based
[14] = Toxicity in ovalbumin immunized C57BL/6 mouse assessed as reactogenicity boosted with OVA at 1 week and measured after week 3, 4, 5 and 6 in presence of (4R)-4-[[(2S)-2-[[(2R)-2-[(3R,4R,5S,6R)-3-acetamido-2,5-dihydroxy-6-(hydroxymethyl)tetrahydropyran-4-yl]oxypropanoyl]amino]propanoyl]amino]-5-amino-5-oxo-pentanoic acid; details: in vivo, 1008 h, time 6 weeks
Mus musculus [15] = organism: Mus musculus; experiment: Adjuvanticity in ovalbumin immunized C57BL/6 mouse assessed as increase in anti-OVA IgG titers boosted with OVA at 1 week and measured after week 3, 4, 5 and 6 in presence of (4R)-4-[[(2S)-2-[[(2R)-2-[(3R,4R,5S,6R)-3-acetamido-2,5-dihydroxy-6-(hydroxymethyl)tetrahydropyran-4-yl]oxypropanoyl]amino]propanoyl]amino]-5-amino-5-oxo-pentanoic acid by ELISA; type: functional, organism-based; details: time 6.0 weeks
Mus musculus [16] = organism: Mus musculus; experiment: Adjuvanticity in ovalbumin immunized C57BL/6 mouse assessed as increase in anti-OVA IgG titers at 40 nmol boosted with OVA at 1 week and measured after week 3, 4, 5 by ELISA; type: functional, organism-based; details: time 5.0 weeks
[17] = Toxicity in ovalbumin immunized C57BL/6 mouse assessed as appearance of inflamed skin at tail base at 40 nmol measured after 1 week post immunization; type: tissue-based; details: in vivo, 168 h, time 1 weeks

| SMILES | Activity (2B4) | Activity (HEK293 [2]) | Activity (BMDM [6]) | Activity (BMDM [7]) | Activity (BMDM [8]) | Activity (Splenocyte [9]) | Activity [11] | further results |
| --- | --- | --- | --- | --- | --- | --- | --- | --- |
| CCCCOC(=O)[C@@H](CCC(N)=O)NC(=O)[C@H](C)NC(=O)[C@@H](C)O[C@H]1[C@H](O)[C@@H](CO)OC(O)[C@@H]1NC(C)=O (stereo partly drawn) |  |  |  |  |  |  |  | Activity (BMDM [1]): inactive |
| CON(CCCn1cc(CCCCCCCCCCCCCCCCCOc2ccc(C(=O)OC[C@H]3OC(O[C@H]4O[C@H](COC(=O)c5ccc(OCCCCCCCCCCCCCCCCCc6cn(CCCN(OC)[C@H]7O[C@@H](CO)[C@H](O)[C@@H](O[C@H](C)C(=O)N[C@@H](C)C(=O)N[C@H](CCC(=O)O)C(N)=O)[C@@H]7NC(C)=O)nn6)cc5)[C@@H](O)[C@H](O)[C@H]4O)[C@H](O)[C@@H](O)[C@@H]3O)cc2)nn1)[C@@H]1O[C@@H](CO)[C@H](O)[C@@H](O[C@H](C)C(=O)N[C@@H](C)C(=O)N[C@H](CCC(=O)O)C(N)=O)[C@@H]1NC(C)=O (stereo partly drawn) | Active | Active | Active | Active | Active | Active | Non-Toxic | t1/2 [3]: 1 yr; half-life [4]: 60 h; half-life [5]: 1 h; Activity (Mus musculus [10]): Active |
| CCCCCCCCCCCCCCCCCCOc1ccc(C(=O)OC[C@H]2O[C@H](O[C@H]3O[C@H](COC(=O)c4ccc(OCCCCCCCCCCCCCCCCCC)cc4OCCCCCCCCCCCCCCCCCC)[C@@H](O)[C@H](O)[C@H]3O)[C@H](O)[C@@H](O)[C@@H]2O)c(OCCCCCCCCCCCCCCCCCC)c1 | Active | inactive |  |  |  |  |  | Activity (HEK293 [12]): Active; Activity (Splenocyte [13]): inactive; Activity [14]: Toxic; Activity (Mus musculus [15]): Active |
| CONCCCn1cc(CCCCCCCCCCCCCCCCCOc2ccc(C(=O)OC[C@H]3O[C@H](O[C@H]4O[C@H](COC(=O)c5ccc(OCCCCCCCCCCCCCCCCCc6cn(CCCNOC)nn6)cc5)[C@@H](O)[C@H](O)[C@H]4O)[C@H](O)[C@@H](O)[C@@H]3O)cc2)nn1 | Active |  |  |  |  |  |  |  |
| CCCCCCCCCCCCCCCCCCCOc1ccc(C(=O)OC[C@H]2O[C@H](O[C@H]3O[C@H](COC(=O)c4ccc(OCCCCCCCCCCCCCCCCCC)cc4OCCCCCCCCCCCCCCCCCc4cn(CCCCN(OC)[C@@H]5O[C@H](CO)[C@@H](O)[C@H](O[C@H](C)C(=O)N[C@@H](C)C(=O)N[C@H](CCC(=O)O)C(N)=O)[C@H]5NC(C)=O)nn4)[C@@H](O)[C@H](O)[C@H]3O)[C@H](O)[C@@H](O)[C@@H]2O)c(OCCCCCCCCCCCCCCCCCc2cn(CCCCN(OC)[C@@H]3O[C@H](CO)[C@@H](O)[C@H](O[C@H](C)C(=O)N[C@@H](C)C(=O)N[C@H](CCC(=O)O)C(N)=O)[C@H]3NC(C)=O)nn2)c1 | Active | Active | Active | Active | Active | Active | Non-Toxic | Activity (Mus musculus [16]): Active; Activity [17]: Toxic |
